Experimental data reported in ChEMBL document CHEMBL3217433, “Identification of pyrazolo-pyrimidinones as GHS-R1a antagonists and inverse agonists for the treatment of obesity” (Medchemcomm, 2013).
Values after ≈ are worked out from the molar mass of the structure shown.

Columns and labels:
[1] = Octanol-buffer partition coefficient, log D of the compound at pH 7.4 after 30 mins by shake-flask method; type: physicochemical
[2] = Intrinsic clearance in human liver microsomes; type: ADME; conditions: read-out: CLH
[3] = Dissociation constant, pKa of the compound; type: physicochemical
[4] = Aqueous solubility of the compound in phosphate buffer at pH 7.4 after 24 hrs by LC-UV analysis; type: physicochemical
[5] = Drug uptake in mouse brain at 20 mg/kg, po measured at 1 hr; type: ADME, organism-based; set-up: dose 20 mg/kg, route oral; conditions: read-out: Drug uptake
[6] = Plasma concentration in mouse at 20 mg/kg, po measured at 1 hr; type: ADME, organism-based; set-up: dose 20 mg/kg, route oral
[7] = Lipophilicity, log D of the compound by HPLC analysis; type: physicochemical

logD at 0.5 h [1] | microsomal CLint [2] [µL/min/mg] | pKa [3] | SMILES | further results
2.7 | 51 |  | Cc1ncccc1-c1nc2cn(-c3cccc(OC(C)C)c3)nc2c(=O)n1C[C@H]1CCCN(C[C@H]2CCCO2)C1 | 
1.2 |  | 6.4 | Cc1ncccc1-c1nc2cn(-c3ccc(C#N)cc3)nc2c(=O)n1CC1CCCN(C2COC2)C1 (racemic) | 
1.3 |  | 8.4 | COCCN1CCC[C@H](Cn2c(-c3cccnc3C)nc3cn(-c4cccc(OC)c4)nc3c2=O)C1 | 
2.3 |  | 10 | Cc1ccccc1-c1nc2cn(-c3ccc(F)cc3)nc2c(=O)n1CC1CCCN(C(C)C)C1 (racemic) | 
1.3 |  | 9.7 | COc1cccc(-n2cc3nc(-c4cccnc4C)n(C[C@H]4CCCN(C(C)C)C4)c(=O)c3n2)c1 | solubility at 24 h [4]: > 2700 µM
2 | 17 |  | COc1cccc(-n2cc3nc(-c4cccnc4C)n(C[C@H]4CCCN(C[C@H]5CCCO5)C4)c(=O)c3n2)c1 | concentration at 1 h [5]: 240 nM; concentration at 1 h [6]: 1200 nM; solubility at 24 h [4]: > 1500 µM
3 |  | 9.8 | Cc1ccccc1-c1nc2cn(-c3cccc(Cl)c3)nc2c(=O)n1CC1CCCN(C(C)C)C1 (racemic) | 
1.4 |  |  | COCCN1CCC[C@H](Cn2c(-c3cccnc3C)nc3cn(C4CCCCC4)nc3c2=O)C1 | 
2.5 |  | 10 | COc1cccc(-n2cc3nc(-c4ccccc4C)n(CC4CCCN(C(C)C)C4)c(=O)c3n2)c1 (racemic) | 
3.1 | 60 |  | COc1cccc(-n2cc3nc(CC(C)C)n(C[C@H]4CCCN(C[C@H]5CCCO5)C4)c(=O)c3n2)c1 | 
> 4.3 |  | 8.5 | COCCN1CCC[C@@H](Cn2c(-c3ccccc3C)nc3cc(-c4ccc(Cl)cc4)sc3c2=O)C1 | logD [7]: 5.6
2.5 | 30 |  | CCOc1cccc(-n2cc3nc(-c4cccnc4C)n(C[C@H]4CCCN(C[C@H]5CCCO5)C4)c(=O)c3n2)c1 | 
 |  | 10 | Cc1ccccc1-c1nc2cn(-c3ccc(Cl)cc3)nc2c(=O)n1CC1CCCN(C(C)C)C1 (racemic) | logD [7]: 3.2
2.4 |  | 10 | COc1ccc(-n2cc3nc(-c4ccccc4C)n(CC4CCCN(C(C)C)C4)c(=O)c3n2)cc1 (racemic) | 
1.9 | 21 |  | COc1ccc(-n2cc3nc(-c4cccnc4C)n(C[C@H]4CCCN(C[C@H]5CCCO5)C4)c(=O)c3n2)cc1 | 
1.1 |  | 8.5 | COCCN1CCCC(Cn2c(-c3cccnc3C)nc3cn(-c4ccc(C#N)cc4)nc3c2=O)C1 (racemic) | 
 |  |  | Cc1ccccc1-c1nc2cc(-c3ccc(Cl)cc3)sc2c(=O)n1CC1CCCN(C(C)C)C1 (racemic) | logD [7]: 4.8
3.3 |  | 8.5 | COCCN1CCC[C@@H](Cn2c(-c3ccccc3C)nc3cn(-c4ccc(Cl)cc4)nc3c2=O)C1 | logD [7]: 3.7
1.7 | 15 |  | Cc1ncccc1-c1nc2cn(-c3ccccc3)nc2c(=O)n1C[C@H]1CCCN(C[C@H]2CCCO2)C1 | 
2.2 | 33 |  | Cc1ncccc1-c1nc2cn(-c3cccc(OC(F)F)c3)nc2c(=O)n1C[C@H]1CCCN(C[C@H]2CCCO2)C1 | 
 |  | 10 | Cc1ccccc1-c1nc2cn(-c3ccc(C#N)cc3)nc2c(=O)n1CC1CCCN(C(C)C)C1 (racemic) | 
> 4.3 |  |  | Cc1ccccc1-c1nc2ccc(-c3ccc(Cl)cc3)cc2c(=O)n1C[C@H]1CCCN(C(C)C)C1 | logD [7]: 5; solubility at 24 h [4]: 45 µM (≈ 21.9 µg/mL)
3.5 |  | 9.2 | COCCN1CCC[C@@H](Cn2c(-c3ccccc3C)nc3nc(-c4ccc(Cl)cc4)sc3c2=O)C1 | logD [7]: 5.1
1.8 |  | 9.9 | Cc1ccccc1-c1nc2cn(-c3cccc(C#N)c3)nc2c(=O)n1CC1CCCN(C(C)C)C1 (racemic) | 
1.9 | 16 |  | COc1cccc(-n2cc3nc(C)n(C[C@H]4CCCN(C[C@H]5CCCO5)C4)c(=O)c3n2)c1 | 
2.9 | 67 |  | CCCOc1cccc(-n2cc3nc(-c4cccnc4C)n(C[C@H]4CCCN(C[C@H]5CCCO5)C4)c(=O)c3n2)c1 | 
